Test results: patent US8802638B1, “Flavonoid treatment of glycogen synthase kinase-based disease” (University of South Florida, priority 2007, dated 2014)

Legend:
PS1 = PS1 processing and PS1-APP association in brain homogenates of luteolin-treated Tg2576 mice; assay type: in vivo; conditions: 20 mg/kg i.p. daily for 30 days
Method: Sixteen (8♂/8♀) Tg2576 mice (Taconic, Germantown, N.Y.) were used; 8 mice received luteolin, and the other 8 received phosphate buffered saline (PBS). Beginning at 8 months of age, Tg2576 mice were intraperitoneally injected with luteolin (20 mg/kg) or PBS daily for 30 days based on previously described methods. These mice were then sacrificed at 9 months of age for analyses of Aβ levels and Aβ load in the brain according to previously described methods. Animals were housed and maintained in the College of Medicine Animal Facility at the University of South Florida (USF), and all experiments were in compliance with protocols approved by the USF Institutional Animal Care and Use Committee.
(§1) Cultured cells or mouse brain were lysed in ice-cold lysis buffer described above, and an aliquot corresponding to 50 μg of total protein was electrophoretically separated using 12% Tris-HCl or 16.5% Tris-tricine gels. Electrophoresed proteins were then transferred to PVDF membranes, washed in dH2O, and blocked for 1 hr at ambient temperature in Tris-buffered saline (TBS; Bio-Rad) containing 5% (w/v) non-fat dry milk. After blocking, membranes were hybridized for 1 hr at ambient temperature with various primary antibodies. Membranes were then washed 3× for 5 min each in dH2O and incubated for 1 hr at ambient temperature with the appropriate HRP-conjugated secondary antibody (1:1,000). […] Densitometric analysis was done as previously described using a FluorS Multiimager with Quantity One™ software (39). […] Antibodies used for Western blot included the APP-carboxyl-terminal antibody (1:50)), amino-terminal APP antibody (clone 22C11), or 6E10 (1:1,000), or actin antibody (1:1,500; as an internal reference control). γ-secretase activity was quantified in cell lysates using available kits based on secretase-specific peptides conjugated to fluorogenic reporter molecules. […]
Brain homogenates from these mice were subsequently analyzed by immunoprecipitation, Western blot, and ELISA, seen in FIGS. 28(A) through 37. […]

GSK-3α/β = GSK-3α/β (Mus musculus, UniProt Q2NL51); assay: Western blot of phosphorylated GSK-3α/β forms in Tg2576-derived neuronal cells; assay type: cell-based, mice; parameters: endogenous in cells; host or cells: primary neuronal cells derived from Tg2576 mice; conditions: 20 μM
Method: as §1

[1] = cited from earlier work
TACE, ADAM10, sAPPα = assay: non-amyloidogenic APP processing (TACE, ADAM10 maturation, sAPPα release); assay type: cell-based; conditions: data not shown
Excerpt: The presence of phosphorylated PS1 CTFs corresponds with reduction of Aβ generation and accumulation of the β-CTF of APP, as was observed following luteolin treatment. The accumulation β-CTFs following luteolin treatment is a fraction of β-CTF seen after direct γ-secretase inhibitor treatment (data not shown). In view of this finding, selective GSK-3 inactivation is a less toxic, more regulative, substrate-specific mode of γ-secretase inhibition. Earlier studies routinely employed phorbol-12,13-dibutyrate (PDBu), a potent PKC activator, as their phosphorylating agent. Thus, luteolin was tested for similar PKC activation, rather than a GSK-3 inhibitor. […] Additionally, there are no indications GSK-3α inhibition affects non-amyloidogenic processing of APP, since luteolin, SB-415286, and GSK-3α RNAi treatment have no effect on the maturation of TACE, ADAM10, or sAPPα release (data not shown), which are all strongly associated with PKC activation.

[2] = tested on: primary neuronal cells derived from Tg2576 mice; assay: APP proteolysis (Aβ ELISA, IP, APP CTF Western blot) in Tg2576 mouse-derived primary neuronal cells; assay type: cell-based; conditions: 12 hrs
Method: Cultured cells or mouse brain were lysed in ice-cold lysis buffer described above, and an aliquot corresponding to 50 μg of total protein was electrophoretically separated using 12% Tris-HCl or 16.5% Tris-tricine gels. Electrophoresed proteins were then transferred to PVDF membranes, washed in dH2O, and blocked for 1 hr at ambient temperature in Tris-buffered saline (TBS; Bio-Rad) containing 5% (w/v) non-fat dry milk. After blocking, membranes were hybridized for 1 hr at ambient temperature with various primary antibodies. Membranes were then washed 3× for 5 min each in dH2O and incubated for 1 hr at ambient temperature with the appropriate HRP-conjugated secondary antibody (1:1,000). Antibodies were obtained against the amino-terminus and carboxyl-terminus of PS1 (Chemicon, Temecula, Calif.), amino-terminus and carboxyl-terminus of APP (22C11), actin (Roche, Basel, Switzerland), Aβ (6E10, 48G) (Signet Laboratories, Dedham, Mass.), phosphor-GSK3α (ser^21, clone BK202) (Upstate, Lake Placid, N.Y.), phospho-GSK3α/β (pTyr^279/216) (Sigma), phospho-GSK-3β (Ser^9) (Sigma) and total GSK-3α/β (Sigma). All antibodies were diluted in TBS containing 5% (w/v) of non-fat dry milk. […] Densitometric analysis was done as previously described using a FluorS Multiimager with Quantity One™ software (39). […] Antibodies used for Western blot included the APP-carboxyl-terminal antibody (1:50)), amino-terminal APP antibody (clone 22C11), or 6E10 (1:1,000), or actin antibody (1:1,500; as an internal reference control). γ-secretase activity was quantified in cell lysates using available kits based on secretase-specific peptides conjugated to fluorogenic reporter molecules.
SweAPP N2a cells and primary neuronal cells derived from Tg2576 mice were treated with varying doses of luteolin to examine luteolin's effect on APP proteolysis. Cellular extracts were collected and analyzed using immunoprecipitation (IP), Western blot, and ELISA. […] SweAPP N2a and primary Tg2576-derived neuronal cells CTF profiles were analyzed following luteolin treatment to determine at which level luteolin impacts amyloid processing.

Chain of GSK-3α/β (Q2NL51 2-490): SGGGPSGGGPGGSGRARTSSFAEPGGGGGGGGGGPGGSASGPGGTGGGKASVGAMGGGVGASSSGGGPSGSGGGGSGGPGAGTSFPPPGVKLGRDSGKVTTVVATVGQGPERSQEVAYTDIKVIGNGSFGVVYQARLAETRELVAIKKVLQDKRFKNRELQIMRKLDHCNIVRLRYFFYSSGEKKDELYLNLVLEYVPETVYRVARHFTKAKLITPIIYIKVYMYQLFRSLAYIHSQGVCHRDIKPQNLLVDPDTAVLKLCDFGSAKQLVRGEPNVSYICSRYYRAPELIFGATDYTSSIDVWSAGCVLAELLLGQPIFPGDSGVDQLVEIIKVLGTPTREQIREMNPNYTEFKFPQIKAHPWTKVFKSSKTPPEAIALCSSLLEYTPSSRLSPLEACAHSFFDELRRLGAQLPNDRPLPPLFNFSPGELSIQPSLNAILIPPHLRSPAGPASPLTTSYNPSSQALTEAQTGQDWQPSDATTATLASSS

- levels of serine 21-phosphorylated, inactive GSK-3α isoforms (GSK-3α/β): increased the levels
SMILES: O=c1cc(-c2ccc(O)c(O)c2)oc2cc(O)cc(O)c12 [luteolin]
- holo APP expression in brain homogenates (PS1): no significant changes
- PS1-APP association in brain homogenates (PS1; IP with PS1 antibody): effectively abolished PS1-APP association
- PS1 processing (PS1 CTF to actin ratio) (PS1; brain homogenates): significantly lower levels of PS1 processing
- half-life in plasma ([1]; in vivo): < 4 h
- oral bioavailability ([1]; oral): < 2%
- maturation of TACE, ADAM10, or sAPPα release (TACE, ADAM10, sAPPα): no effect
- accumulation of both α and β CTFs (increase over control) ([2]; dose dependent, Western blot densitometry): 2-3 fold
- Aβ1-40, 42 peptide generation abrogated ([2]; luteolin 20 μM): > 70%
- Aβ1-40, 42 peptide generation abrogated ([2]; luteolin 40 μM): > 85%
